“And” between values parts separate entries of the source, which are not always exact repeats. Identical values can stand only once. Inconclusive results and toxic doses are left out. No stated cut-off is given here; in the data, active means T/C of 150% or more; inactive means T/C below 125%.
Test system: L1210 leukemia ip in BDF1 mice, survival T/C
Assay: NCI In Vivo Anticancer Drug Screen. Data for tumor model L1210 Leukemia (intraperitoneal) in B6D2F1 (BDF1) mice
Conditions: endpoint: mean survival time, higher = longer survival
Procedure, shortened: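 Transplanted-tumor mice were given test agent; controls received vehicle only. Survival readings from the two groups were divided (treated over control).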

[1] = dose: 100.0 mg/kg/injection, schedule: Q04DX002 (ip), vehicle: saline with Tween-80
[2] = dose: 200.0 mg/kg/injection, schedule: Q04DX002 (ip), vehicle: saline with Tween-80
[3] = dose: 75.0 mg/kg/injection, schedule: Q01DX001 (ip), vehicle: saline
[4] = dose: 100.0 mg/kg/injection, schedule: Q04DX002 (ip), vehicle: saline
[5] = dose: 200.0 mg/kg/injection, schedule: Q04DX002 (ip), vehicle: saline
[6] = dose: 400.0 mg/kg/injection, schedule: Q04DX002 (ip), vehicle: saline
[7] = dose: 400.0 mg/kg/injection, schedule: Q04DX002 (ip), vehicle: saline with Tween-80
[8] = dose: 100.0 mg/kg/injection, schedule: Q01DX001 (ip), vehicle: saline
[9] = dose: 200.0 mg/kg/injection, schedule: Q01DX001 (ip), vehicle: saline
[10] = dose: 400.0 mg/kg/injection, schedule: Q01DX001 (ip), vehicle: saline
[11] = dose: 100.0 mg/kg/injection, schedule: Q04DX003 (ip), vehicle: saline with Tween-80
[12] = dose: 200.0 mg/kg/injection, schedule: Q04DX003 (ip), vehicle: saline with Tween-80
[13] = dose: 100.0 mg/kg/injection, schedule: Q04DX003 (ip), vehicle: Klucel (hydroxypropylcellulose) (HPC)
[14] = dose: 200.0 mg/kg/injection, schedule: Q04DX003 (ip), vehicle: Klucel (hydroxypropylcellulose) (HPC)

Measured: T/C

c1ccc2n[nH]nc2c1
inactive: dose: 50.0 mg/kg/injection, schedule: Q04DX002 (ip), vehicle: saline with Tween-80 95 % of control | [1] 106 % of control | [2] 98 % of control

CC(C)C1CC=CCC12C(=O)NC(=O)NC2=O (centres undefined)
inactive: dose: 75.0 mg/kg/injection, schedule: Q01DX001 (ip), vehicle: other 104 % of control | dose: 150.0 mg/kg/injection, schedule: Q01DX001 (ip), vehicle: other 97 % of control | dose: 300.0 mg/kg/injection, schedule: Q01DX001 (ip), vehicle: other 93 % of control

CCc1ccc2c(c1)N(CC(C)CN(C)C)c1ccccc1S2 (centres undefined)
inactive: dose: 1.56 mg/kg/injection, schedule: Q01DX009 (ip), vehicle: saline 115 % of control | dose: 3.12 mg/kg/injection, schedule: Q01DX009 (ip), vehicle: saline 109 % of control | dose: 6.25 mg/kg/injection, schedule: Q01DX009 (ip), vehicle: saline 106 % of control | dose: 12.5 mg/kg/injection, schedule: Q01DX009 (ip), vehicle: saline 102 % of control | dose: 12.5 mg/kg/injection, schedule: Q04DX003 (ip), vehicle: saline 113 % of control | dose: 25.0 mg/kg/injection, schedule: Q04DX003 (ip), vehicle: saline 115 % of control

O=C(C1=C(C(=O)c2ccccc2)C2C=CC1C2)c1ccccc1
inactive: dose: 75.0 mg/kg/injection, schedule: Q04DX003 (ip), vehicle: Klucel (hydroxypropylcellulose) (HPC) 96 % of control | dose: 150.0 mg/kg/injection, schedule: Q04DX003 (ip), vehicle: Klucel (hydroxypropylcellulose) (HPC) 94 % of control | dose: 300.0 mg/kg/injection, schedule: Q04DX003 (ip), vehicle: Klucel (hydroxypropylcellulose) (HPC) 89 % of control

O=S(=O)(N/C(=C(/c1ccccc1)N(c1ccccc1)S(=O)(=O)c1ccccc1)c1ccccc1)c1ccccc1
inactive: dose: 75.0 mg/kg/injection, schedule: Q01DX001 (ip), vehicle: Klucel (hydroxypropylcellulose) (HPC) 90 % of control | dose: 150.0 mg/kg/injection, schedule: Q01DX001 (ip), vehicle: Klucel (hydroxypropylcellulose) (HPC) 87 % of control | dose: 300.0 mg/kg/injection, schedule: Q01DX001 (ip), vehicle: Klucel (hydroxypropylcellulose) (HPC) 90 % of control

CC1CCC/C(=N/Nc2ccc3ccccc3n2)C1 (centres undefined)
inactive: [3] 113 % of control

CCOC(=O)c1ccc(NC(=O)Sc2ccccc2C)cc1
inactive: [4] 120 % of control | [5] 120 % of control | [6] 87 % of control

CCOC(=O)CNc1ccc(F)c(C(F)(F)F)c1
inactive: [4] 95 % of control and 107 % of control | [5] 103 % of control and 92 % of control | [6] 110 % of control | dose: 600.0 mg/kg/injection, schedule: Q04DX002 (ip), vehicle: saline 95 % of control

CCCN(CCC)S(=O)(=O)CC
inactive: [1] 99 % of control | [2] 92 % of control | [7] 99 % of control

OCCOCC(F)(F)F
inactive: [8] 97 % of control | [9] 100 % of control | [10] 105 % of control | dose: 400.0 mg/kg/injection, schedule: Q01DX015 (ip), vehicle: saline 96 % of control | dose: 800.0 mg/kg/injection, schedule: Q01DX001 (ip), vehicle: saline 105 % of control | dose: 800.0 mg/kg/injection, schedule: Q01DX015 (ip), vehicle: saline 101 % of control | dose: 1600.0 mg/kg/injection, schedule: Q01DX001 (ip), vehicle: saline 108 % of control

C(=N\Nc1nnc(N/N=C/c2cccc(OCc3ccccc3)c2)c2ccccc12)/c1cccc(OCc2ccccc2)c1
inactive: dose: 50.0 mg/kg/injection, schedule: Q01DX001 (ip), vehicle: saline 101 % of control | [8] 95 % of control | [9] 92 % of control | [10] 97 % of control

O=C1NC2(C=CCCC2)C(O)(c2ccccc2)C12CCCCC2 (centres undefined)
inactive: [3] 95 % of control | dose: 150.0 mg/kg/injection, schedule: Q01DX001 (ip), vehicle: saline 86 % of control | dose: 300.0 mg/kg/injection, schedule: Q01DX001 (ip), vehicle: saline 89 % of control

Cc1cc(=O)oc2cc(OS(C)(=O)=O)ccc12
inactive: dose: 100.0 mg/kg/injection, schedule: Q01DX001 (ip), vehicle: carboxymethylcellulose (CMC) 113 % of control | dose: 200.0 mg/kg/injection, schedule: Q01DX001 (ip), vehicle: carboxymethylcellulose (CMC) 107 % of control | dose: 400.0 mg/kg/injection, schedule: Q01DX001 (ip), vehicle: carboxymethylcellulose (CMC) 98 % of control

Cn1cc(/C=C\C(=O)O)c2nccnc21
inactive: dose: 37.5 mg/kg/injection, schedule: Q01DX009 (ip), vehicle: water 95 % of control | dose: 50.0 mg/kg/injection, schedule: Q01DX009 (ip), vehicle: water 100 % of control | dose: 75.0 mg/kg/injection, schedule: Q01DX009 (ip), vehicle: water 105 % of control | dose: 100.0 mg/kg/injection, schedule: Q01DX009 (ip), vehicle: water 89 % of control | dose: 100.0 mg/kg/injection, schedule: Q04DX003 (ip), vehicle: water 108 % of control | dose: 150.0 mg/kg/injection, schedule: Q01DX009 (ip), vehicle: water 89 % of control | dose: 200.0 mg/kg/injection, schedule: Q01DX009 (ip), vehicle: water 91 % of control | dose: 200.0 mg/kg/injection, schedule: Q04DX003 (ip), vehicle: water 106 % of control | dose: 300.0 mg/kg/injection, schedule: Q01DX009 (ip), vehicle: water 91 % of control

O=C1CCc2ccccc2/C1=C\c1ccccc1
inactive: [11] 98 % of control | [12] 97 % of control | dose: 400.0 mg/kg/injection, schedule: Q04DX003 (ip), vehicle: saline with Tween-80 92 % of control

Cc1ccc(C)c(NC(=O)NCc2ccccc2Cl)c1
inactive: dose: 100.0 mg/kg/injection, schedule: Q01DX009 (ip), vehicle: Klucel (hydroxypropylcellulose) (HPC) 103 % of control | [13] 104 % of control | dose: 200.0 mg/kg/injection, schedule: Q01DX009 (ip), vehicle: Klucel (hydroxypropylcellulose) (HPC) 101 % of control | [14] 98 % of control | dose: 400.0 mg/kg/injection, schedule: Q01DX009 (ip), vehicle: Klucel (hydroxypropylcellulose) (HPC) 93 % of control | dose: 400.0 mg/kg/injection, schedule: Q04DX003 (ip), vehicle: Klucel (hydroxypropylcellulose) (HPC) 89 % of control

O=C1Nc2ccccc2C1=O
inactive: dose: 50.0 mg/kg/injection, schedule: Q01DX009 (ip), vehicle: saline 92 % of control | dose: 100.0 mg/kg/injection, schedule: Q01DX009 (ip), vehicle: saline 103 % of control | dose: 100.0 mg/kg/injection, schedule: Q04DX003 (ip), vehicle: saline 99 % of control | dose: 200.0 mg/kg/injection, schedule: Q01DX009 (ip), vehicle: saline 103 % of control | dose: 200.0 mg/kg/injection, schedule: Q04DX003 (ip), vehicle: saline 99 % of control | dose: 400.0 mg/kg/injection, schedule: Q01DX009 (ip), vehicle: saline 96 % of control | dose: 400.0 mg/kg/injection, schedule: Q04DX003 (ip), vehicle: saline 99 % of control

COC(=O)c1ccc2cc(C(=O)OC)ccc2c1
inactive: dose: 50.0 mg/kg/injection, schedule: Q04DX003 (ip), vehicle: Klucel (hydroxypropylcellulose) (HPC) 105 % of control | [13] 105 % of control | [14] 101 % of control

O=C(NC(=S)Nc1ccc2ccccc2c1)c1ccc(Cl)cc1Cl
inactive: dose: 100.0 mg/kg/injection, schedule: Q01DX001 (ip), vehicle: saline with Tween-80 100 % of control | [1] 93 % of control and 90 % of control | dose: 200.0 mg/kg/injection, schedule: Q01DX001 (ip), vehicle: saline with Tween-80 101 % of control | [2] 93 % of control and 96 % of control | dose: 400.0 mg/kg/injection, schedule: Q01DX001 (ip), vehicle: saline with Tween-80 96 % of control | [7] 104 % of control and 86 % of control

CCN(CC)CCC(=O)Nc1cccc2c1C(=O)c1c(c(O)c3ccccc3c1O)C2=O
inactive: dose: 50.0 mg/kg/injection, schedule: Q01DX009 (ip), vehicle: saline with Tween-80 105 % of control | dose: 100.0 mg/kg/injection, schedule: Q01DX009 (ip), vehicle: saline with Tween-80 91 % of control | [11] 105 % of control | [12] 90 % of control
